Laboratory results published in ChEMBL document CHEMBL5465560, “Selectivity Literature for EUbOPEN Chemogenomic Library” (2024).

How the values were obtained:
[1] = biological target: Serine/threonine-protein kinase WNK3 (Homo sapiens) (UniProt Q9BYP7); assay: Selectivity interaction (KinomeScan (DiscoverX)) EUB0001079a WNK3; conditions: at 1 µM
[2] = test system: Receptor-type tyrosine-protein kinase FLT3 (Homo sapiens), P36888 [UNDEFINED MUTATION]; assay: Selectivity interaction (KinomeScan (DiscoverX)) EUB0001079a FLT3; conditions: at 1 µM
[3] = biological target: T1, Serine/threonine-protein kinase Chk1 (Homo sapiens) (UniProt O14757); conditions: at 10 µM
T1 sequence (whole entry): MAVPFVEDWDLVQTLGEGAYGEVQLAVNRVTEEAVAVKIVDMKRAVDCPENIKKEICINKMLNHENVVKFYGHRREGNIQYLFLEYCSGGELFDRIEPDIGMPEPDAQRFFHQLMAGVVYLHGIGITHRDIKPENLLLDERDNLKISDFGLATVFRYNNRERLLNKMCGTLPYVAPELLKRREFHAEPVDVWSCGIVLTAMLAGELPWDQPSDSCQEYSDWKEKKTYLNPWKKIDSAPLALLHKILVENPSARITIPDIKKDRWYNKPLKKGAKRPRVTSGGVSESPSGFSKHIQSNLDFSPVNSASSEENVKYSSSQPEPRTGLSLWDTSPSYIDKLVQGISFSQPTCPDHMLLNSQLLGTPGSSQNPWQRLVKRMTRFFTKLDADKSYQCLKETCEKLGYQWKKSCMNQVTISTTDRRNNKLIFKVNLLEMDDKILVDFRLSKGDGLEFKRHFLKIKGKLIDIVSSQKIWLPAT

[4] = biological target: T2, Receptor-interacting serine/threonine-protein kinase 1 (Homo sapiens) (UniProt Q13546); assay: Selectivity interaction (KinomeScan (DiscoverX)) EUB0000045b RIPK1
T2 sequence (whole entry): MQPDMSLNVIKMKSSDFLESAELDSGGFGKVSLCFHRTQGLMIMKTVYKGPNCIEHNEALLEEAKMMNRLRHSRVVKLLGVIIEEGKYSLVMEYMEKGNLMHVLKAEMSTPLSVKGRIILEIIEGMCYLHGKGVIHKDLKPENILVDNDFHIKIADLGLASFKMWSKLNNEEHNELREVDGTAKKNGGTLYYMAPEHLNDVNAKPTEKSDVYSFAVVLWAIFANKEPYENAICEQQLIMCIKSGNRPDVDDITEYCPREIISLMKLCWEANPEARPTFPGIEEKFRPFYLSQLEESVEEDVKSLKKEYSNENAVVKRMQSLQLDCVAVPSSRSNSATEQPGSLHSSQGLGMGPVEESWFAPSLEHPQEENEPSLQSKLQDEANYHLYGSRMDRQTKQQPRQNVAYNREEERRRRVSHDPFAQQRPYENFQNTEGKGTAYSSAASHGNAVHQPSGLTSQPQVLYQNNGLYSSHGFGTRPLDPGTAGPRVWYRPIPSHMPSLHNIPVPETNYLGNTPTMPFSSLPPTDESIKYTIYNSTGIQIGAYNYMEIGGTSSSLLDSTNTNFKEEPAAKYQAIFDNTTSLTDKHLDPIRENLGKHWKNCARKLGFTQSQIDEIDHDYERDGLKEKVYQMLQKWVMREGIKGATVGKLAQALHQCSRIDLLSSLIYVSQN

[5] = test system: Epidermal growth factor receptor (Homo sapiens), P00533 [L861Q]; conditions: at 10 µM
Epidermal growth factor receptor (Homo sapiens), P00533 [L861Q], sequence (P00533 whole entry L861Q): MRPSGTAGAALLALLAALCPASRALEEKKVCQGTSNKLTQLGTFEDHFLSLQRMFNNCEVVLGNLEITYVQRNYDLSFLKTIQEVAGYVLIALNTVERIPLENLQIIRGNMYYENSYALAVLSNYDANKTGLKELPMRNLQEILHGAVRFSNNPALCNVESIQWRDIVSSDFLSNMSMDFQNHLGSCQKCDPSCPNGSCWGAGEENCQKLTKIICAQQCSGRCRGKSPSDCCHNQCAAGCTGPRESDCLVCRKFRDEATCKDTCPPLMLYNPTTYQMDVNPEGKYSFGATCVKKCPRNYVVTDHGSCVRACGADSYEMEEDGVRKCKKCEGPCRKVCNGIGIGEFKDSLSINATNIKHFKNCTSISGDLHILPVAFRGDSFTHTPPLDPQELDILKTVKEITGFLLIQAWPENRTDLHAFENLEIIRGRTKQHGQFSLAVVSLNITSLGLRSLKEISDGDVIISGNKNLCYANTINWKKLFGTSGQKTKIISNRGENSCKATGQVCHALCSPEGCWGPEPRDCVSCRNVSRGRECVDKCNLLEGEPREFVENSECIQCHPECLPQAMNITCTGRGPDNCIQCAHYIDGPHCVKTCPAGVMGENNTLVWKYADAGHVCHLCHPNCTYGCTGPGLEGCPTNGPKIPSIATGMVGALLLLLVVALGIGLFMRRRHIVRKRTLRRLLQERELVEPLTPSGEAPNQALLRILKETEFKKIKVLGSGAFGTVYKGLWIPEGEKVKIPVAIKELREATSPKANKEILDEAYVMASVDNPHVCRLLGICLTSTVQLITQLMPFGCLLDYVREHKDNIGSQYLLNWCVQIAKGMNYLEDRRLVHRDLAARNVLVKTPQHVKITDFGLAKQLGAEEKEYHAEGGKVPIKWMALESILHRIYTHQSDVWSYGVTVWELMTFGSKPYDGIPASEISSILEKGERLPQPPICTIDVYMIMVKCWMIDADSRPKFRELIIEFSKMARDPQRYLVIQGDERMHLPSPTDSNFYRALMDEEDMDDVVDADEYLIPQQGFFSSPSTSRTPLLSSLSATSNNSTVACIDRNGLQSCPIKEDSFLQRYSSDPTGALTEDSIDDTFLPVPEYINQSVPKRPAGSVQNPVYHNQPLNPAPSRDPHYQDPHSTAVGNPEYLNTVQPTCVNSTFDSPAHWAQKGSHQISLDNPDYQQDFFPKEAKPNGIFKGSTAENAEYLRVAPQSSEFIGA

[6] = biological target: T3, Myosin light chain kinase (Homo sapiens) (UniProt Q32MK0); assay: Selectivity interaction (KinomeScan (DiscoverX)) EUB0000695a MYLK3; conditions: at 100 nM
T3 sequence (whole entry): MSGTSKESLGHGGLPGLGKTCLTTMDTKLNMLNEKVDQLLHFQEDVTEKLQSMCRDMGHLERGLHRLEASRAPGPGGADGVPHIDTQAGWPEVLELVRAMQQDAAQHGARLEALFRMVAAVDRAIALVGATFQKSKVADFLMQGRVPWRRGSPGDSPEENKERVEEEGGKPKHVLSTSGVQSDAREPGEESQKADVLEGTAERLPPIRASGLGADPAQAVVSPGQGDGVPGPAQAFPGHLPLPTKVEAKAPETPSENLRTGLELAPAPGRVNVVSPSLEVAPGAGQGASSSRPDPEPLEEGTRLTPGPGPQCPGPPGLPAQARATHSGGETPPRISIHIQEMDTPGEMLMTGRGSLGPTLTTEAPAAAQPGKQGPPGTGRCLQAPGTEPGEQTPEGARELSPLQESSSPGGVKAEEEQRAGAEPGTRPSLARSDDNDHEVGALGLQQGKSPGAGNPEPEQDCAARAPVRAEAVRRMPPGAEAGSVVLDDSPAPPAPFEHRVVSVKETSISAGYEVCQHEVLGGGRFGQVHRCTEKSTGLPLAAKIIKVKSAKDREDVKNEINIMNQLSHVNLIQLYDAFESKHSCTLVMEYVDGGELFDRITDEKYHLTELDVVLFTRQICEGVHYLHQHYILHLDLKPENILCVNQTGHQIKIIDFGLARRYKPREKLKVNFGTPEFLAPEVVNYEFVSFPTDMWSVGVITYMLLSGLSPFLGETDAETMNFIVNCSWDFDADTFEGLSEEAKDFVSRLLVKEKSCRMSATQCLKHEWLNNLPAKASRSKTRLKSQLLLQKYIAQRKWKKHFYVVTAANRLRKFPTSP

[7] = biological target: Serine/threonine-protein kinase OSR1 (Homo sapiens) (UniProt O95747); assay: Selectivity interaction (KinomeScan (DiscoverX)) EUB0000607a OXSR1; conditions: at 10 µM
Serine/threonine-protein kinase OSR1 (Homo sapiens), sequence (O95747 2-527 limits assumed): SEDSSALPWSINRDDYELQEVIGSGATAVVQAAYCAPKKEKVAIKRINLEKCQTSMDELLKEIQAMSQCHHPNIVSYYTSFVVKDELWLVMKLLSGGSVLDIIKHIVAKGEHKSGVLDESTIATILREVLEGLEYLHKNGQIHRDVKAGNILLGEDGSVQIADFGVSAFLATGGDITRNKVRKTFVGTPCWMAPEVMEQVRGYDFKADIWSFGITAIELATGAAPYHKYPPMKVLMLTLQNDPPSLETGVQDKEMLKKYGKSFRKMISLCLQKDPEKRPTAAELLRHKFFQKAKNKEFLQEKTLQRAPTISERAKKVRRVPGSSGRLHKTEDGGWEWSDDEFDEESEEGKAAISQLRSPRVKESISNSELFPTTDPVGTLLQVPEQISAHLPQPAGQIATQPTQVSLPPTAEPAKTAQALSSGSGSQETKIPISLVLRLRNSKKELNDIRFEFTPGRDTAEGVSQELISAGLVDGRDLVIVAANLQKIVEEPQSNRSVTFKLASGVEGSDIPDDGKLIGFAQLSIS

[8] = biological target: Phosphatidylinositol 4,5-bisphosphate 3-kinase catalytic subunit gamma isoform (Homo sapiens) (UniProt P48736); assay: Selectivity interaction (Panel of kinases, GPCRs, ion channels and transporters (enzymatic assay)) EUB0000223bCl PIK3CG
Phosphatidylinositol 4,5-bisphosphate 3-kinase catalytic subunit gamma isoform (Homo sapiens), sequence (P48736 whole entry, looked up, canonical isoform): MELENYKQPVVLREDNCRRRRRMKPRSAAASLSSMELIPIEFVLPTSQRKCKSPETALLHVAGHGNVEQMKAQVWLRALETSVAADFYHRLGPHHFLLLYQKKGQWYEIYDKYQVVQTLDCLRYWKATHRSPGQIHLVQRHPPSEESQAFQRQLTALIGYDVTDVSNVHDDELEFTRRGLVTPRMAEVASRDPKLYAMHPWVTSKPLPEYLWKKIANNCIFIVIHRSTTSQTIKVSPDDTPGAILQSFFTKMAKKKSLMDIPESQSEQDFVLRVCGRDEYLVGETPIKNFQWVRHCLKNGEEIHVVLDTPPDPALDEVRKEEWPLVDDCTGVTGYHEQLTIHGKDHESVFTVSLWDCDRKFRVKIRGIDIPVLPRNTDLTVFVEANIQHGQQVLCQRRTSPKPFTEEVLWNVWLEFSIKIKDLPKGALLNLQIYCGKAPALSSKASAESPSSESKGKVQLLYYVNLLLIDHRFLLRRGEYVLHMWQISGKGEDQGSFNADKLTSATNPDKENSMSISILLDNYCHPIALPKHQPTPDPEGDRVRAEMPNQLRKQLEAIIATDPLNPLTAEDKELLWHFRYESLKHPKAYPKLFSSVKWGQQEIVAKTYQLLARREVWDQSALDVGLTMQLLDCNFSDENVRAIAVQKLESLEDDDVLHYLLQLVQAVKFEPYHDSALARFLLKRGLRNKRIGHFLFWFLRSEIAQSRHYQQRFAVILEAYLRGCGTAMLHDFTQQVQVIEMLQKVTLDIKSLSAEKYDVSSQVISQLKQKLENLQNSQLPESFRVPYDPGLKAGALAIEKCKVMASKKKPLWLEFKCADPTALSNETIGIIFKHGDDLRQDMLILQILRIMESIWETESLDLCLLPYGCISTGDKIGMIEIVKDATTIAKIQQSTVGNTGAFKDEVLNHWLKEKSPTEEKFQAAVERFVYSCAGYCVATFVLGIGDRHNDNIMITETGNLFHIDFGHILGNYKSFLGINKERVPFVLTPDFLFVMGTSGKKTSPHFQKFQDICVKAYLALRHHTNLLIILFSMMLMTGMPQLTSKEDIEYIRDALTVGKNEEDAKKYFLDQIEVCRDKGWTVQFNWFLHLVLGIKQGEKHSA

Serine/threonine-protein kinase WNK3 (Homo sapiens), sequence (Q9BYP7 whole entry): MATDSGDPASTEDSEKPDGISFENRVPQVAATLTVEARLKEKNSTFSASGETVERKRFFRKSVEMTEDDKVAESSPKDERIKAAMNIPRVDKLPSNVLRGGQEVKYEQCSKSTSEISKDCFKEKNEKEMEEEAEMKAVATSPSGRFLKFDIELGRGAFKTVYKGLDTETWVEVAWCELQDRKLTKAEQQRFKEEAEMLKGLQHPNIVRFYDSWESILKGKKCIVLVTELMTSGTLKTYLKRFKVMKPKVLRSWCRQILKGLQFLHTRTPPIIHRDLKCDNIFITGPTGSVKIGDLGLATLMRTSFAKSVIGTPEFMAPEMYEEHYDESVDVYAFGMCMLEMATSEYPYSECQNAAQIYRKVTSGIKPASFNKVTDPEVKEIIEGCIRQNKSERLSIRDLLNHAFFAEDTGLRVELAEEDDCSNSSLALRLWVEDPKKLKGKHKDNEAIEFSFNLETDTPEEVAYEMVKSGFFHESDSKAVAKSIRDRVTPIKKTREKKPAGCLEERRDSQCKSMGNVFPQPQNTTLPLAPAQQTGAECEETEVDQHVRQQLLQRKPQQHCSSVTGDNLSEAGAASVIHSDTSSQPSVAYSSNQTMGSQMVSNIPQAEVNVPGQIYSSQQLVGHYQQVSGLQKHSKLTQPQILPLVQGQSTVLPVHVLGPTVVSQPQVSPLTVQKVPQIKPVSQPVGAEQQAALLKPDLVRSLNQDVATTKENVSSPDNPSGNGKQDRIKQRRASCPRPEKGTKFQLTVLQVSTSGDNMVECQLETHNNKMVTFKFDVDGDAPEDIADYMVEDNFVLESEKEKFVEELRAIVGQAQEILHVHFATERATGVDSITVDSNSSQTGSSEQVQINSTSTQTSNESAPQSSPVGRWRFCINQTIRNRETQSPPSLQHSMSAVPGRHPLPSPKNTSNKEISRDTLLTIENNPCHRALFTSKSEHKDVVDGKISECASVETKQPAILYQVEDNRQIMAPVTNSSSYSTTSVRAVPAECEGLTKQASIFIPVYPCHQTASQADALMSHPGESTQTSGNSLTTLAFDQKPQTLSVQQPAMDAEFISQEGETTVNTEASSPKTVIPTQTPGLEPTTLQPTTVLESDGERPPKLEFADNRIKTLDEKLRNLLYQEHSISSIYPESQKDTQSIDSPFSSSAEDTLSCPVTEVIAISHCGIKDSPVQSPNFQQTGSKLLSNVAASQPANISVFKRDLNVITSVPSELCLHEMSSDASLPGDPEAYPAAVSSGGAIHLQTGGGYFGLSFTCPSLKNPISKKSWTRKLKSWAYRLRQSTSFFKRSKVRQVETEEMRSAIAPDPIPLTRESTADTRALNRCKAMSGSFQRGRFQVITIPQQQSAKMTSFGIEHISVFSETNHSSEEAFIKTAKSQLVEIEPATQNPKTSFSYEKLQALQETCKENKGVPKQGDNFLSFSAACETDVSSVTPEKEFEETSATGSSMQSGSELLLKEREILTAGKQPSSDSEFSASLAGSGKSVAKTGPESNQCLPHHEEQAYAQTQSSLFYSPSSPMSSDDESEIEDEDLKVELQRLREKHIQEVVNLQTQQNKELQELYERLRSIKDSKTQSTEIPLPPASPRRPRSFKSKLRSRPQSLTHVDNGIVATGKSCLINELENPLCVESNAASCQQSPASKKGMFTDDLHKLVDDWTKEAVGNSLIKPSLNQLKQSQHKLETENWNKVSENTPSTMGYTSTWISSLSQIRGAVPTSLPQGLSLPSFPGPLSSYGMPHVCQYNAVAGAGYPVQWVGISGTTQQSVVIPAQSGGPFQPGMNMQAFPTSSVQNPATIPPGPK

Q: With Nc1cnc(N2CCc3cc(S(=O)(=O)Nc4c(F)cc(Cl)cc4F)cc(N4CCCC4=O)c32)nc1 [TP-020n] as the compound, how does the % of control [1] read?
A: Its % of control is 100%.

Q: And the % of control [2]?
A: The % of control was 96%.

Q: For COCC(=O)NC/C=C/c1ccc2ncnc(Nc3ccc(Oc4ccc(C)nc4)c(C)c3)c2c1 [CP-724714], which % of control [3] is on record?
A: The % of control was 90%.

Q: How did the % of control ([4]; at 1 µM) turn out when C=CC(=O)Nc1cc(-n2c(=O)ccc3cnc4ccc(-c5ccc(NS(C)(=O)=O)cc5)cc4c32)ccc1C was run?
A: Its % of control is 87%.

Q: What about the % of control ([4]; at 10 µM) of the same compound?
A: The % of control was 100%.

Q: Which % of control [5] does the source give for Cc1cc([C@@H](C)Nc2ccccc2C(=O)O)c2nc(N3CCOCC3)cc(=O)n2c1 [AZD-6482] here?
A: The % of control was 100%.

Q: With Cc1cc(F)c(C(=O)Nc2cccc(-c3nncn3C(C)C)n2)cc1-n1cnc(C2CC2)c1 as the compound, how does the % of control [6] read?
A: Its % of control is 100%.

Q: CNC(=O)Nc1ccc(-c2nc(N3CC4CCC(C3)O4)c3cnn(C4CCC5(CC4)OCCO5)c3n2)cc1 was tested. Which % of control [7] did it give?
A: The % of control was 100%.

Q: How did the pXC50 [8] turn out when COc1cc(C(=O)N2CC[C@@H](O)[C@@H](N)C2)cc2nc(-c3cc4ccccc4n3CC3CC3)n(C)c12 was run?
A: Its pXC50 is less than 4.5 M.
